{"source": "patent US6781015B2", "about": "“Aminobenzophenones and photopolymerizable compositions including the same” (Albemarle Corporation, priority 1997, dated 2004)", "key": {"[1]": {"tested_on": "Salmonella typhimurium tester strain TA98", "details": "strain TA98 with added mammalian metabolic activation, adequate concentrations of test material; cited from earlier work"}, "[2]": {"experiment": "Most concentrated stock solution in acetone", "format": "physicochemical", "details": "clear, light yellow solution", "experimental": "(§1) The test article TMMK was stored at room temperature. Acetone (CAS# 67-64-1, Fisher Scientific Co., Lot 961140) was used as the vehicle. At 20 mg per ml, which was the most concentrated stock solution which could be prepared, the test article formed a clear, light yellow solution. The test article remained a solution in all succeeding dilutions prepared for the mutagenicity assay. The maximum aliquot of acetone which can be used in the test system is 200 μl. Thus, the maximum concentration which could be tested was 4,000 μg per plate. The test article and vehicle controls were plated using a 200 μl plating aliquot. Positive control articles were plated using 50 μl plating aliquot."}, "[3]": {"tested_on": "Salmonella typhimurium tester strain TA98", "experiment": "Salmonella/Mammalian-Microsome Reverse Mutation Screening Assay (Ames Test)", "format": "cell-based", "set-up": "key to Background lawn: 1 = normal; 2 = slightly reduced; 3 = moderately reduced; 4 = extremely reduced; 5 = absent; 6 = obscured by precipitate; sp = slight precipitate; mp = moderate precipitate (requires hand count); hp = heavy precipitate (requires hand count)", "details": "for Individual plate counts, revertants per plate: plates 1-3", "experimental": "Mutagenicity can be measured by a variety of assays. The most commonly used method is the Salmonella/Mammalian-Microsome Reverse Mutation Screening Assay (Ames Test), which commonly uses four or five strains of Salmonella bacteria to detect different types of mutations.\nTMMK, TEMK and MEAB were evaluated for the ability to induce reverse mutations at the histidine locus in the genome of a specific Salmonella typhimurium tester strain in the presence of an exogenous metabolic activation system of mammalian microsomal enzymes derived from Aroclor™-induced rat liver (S9). The tester strain used in the mutagenicity assay was Salmonella typhimurium tester strain TA98 with added activation. The assay was conducted using eight doses of the test article, along with the appropriate vehicle and positive controls in the presence of S9 mix (S9 homogenate was purchased from Molecular Toxicology, Inc., Annapolis, Md. 21401, Batch 0646, 43.4 mg of protein per ml). Positive controls were also plated in the absence of S9 mix. All doses of test article, vehicle, and positive controls were plated in triplicate.\nas §1\n(§2) The test article TEMK was stored at room temperature. Acetone (CAS# 67-64-1, Fisher Scientific Co., Lot 961140) was used as the vehicle. At 100 mg per ml, which was the most concentrated stock solution prepared, the test article formed a clear, yellow solution. The test article remained a solution in all succeeding dilutions prepared for the mutagenicity assay. The test article, vehicle controls and positive control articles were plated using a 50 μl plating aliquot.\nas §2, with “MEAB” for “TEMK”, “(CAS#67-64-1,” for “(CAS# 67-64-1,”, “25” for “100”, “clear, light” for “clear,”, “article and” for “article,”, “were plated using a 200 μl plating aliquot. Positive” for “and positive”\nThe data are presented as individual plate counts along with a mean and standard deviation."}, "[4]": {"details": "based on cancer studies in rats and mice; cited from earlier work"}, "[5]": {"details": "TA98, rat liver S9, 3.33 μg/plate"}, "[6]": {"details": "TA98, rat liver S9, 10.0 μg/plate"}, "[7]": {"details": "TA98, rat liver S9, 33.3 μg/plate"}, "[8]": {"details": "TA98, rat liver S9, 100 μg/plate"}, "[9]": {"details": "TA98, rat liver S9, 333 μg/plate"}, "[10]": {"details": "TA98, rat liver S9, 1000 μg/plate"}, "[11]": {"details": "TA98, rat liver S9, 3330 μg/plate"}, "[12]": {"details": "TA98, rat liver S9, 4000 μg/plate"}, "[13]": {"details": "tester strain TA98 in the presence of S9 mix"}}, "note": "Where “and” joins values, the source holds several entries; their conditions need not be identical. Equal values may be shown once.", "data": [{"smiles": "CN(C)c1ccc(C(=O)c2ccc(N(C)C)cc2)cc1", "note": "[TMMK, 4,4′-bis(dimethylamino)benzophenone]", "values": [{"measurement": "Ames Test outcome in the literature", "setting": "[1]", "value": "consistently found to have mutations"}, {"measurement": "Most concentrated stock solution which could be prepared", "setting": "[2]", "value": 20, "unit": "mg per ml"}, {"measurement": "Mean revertants per plate", "setting": "[3]; [5]", "value": 22, "unit": "revertants per plate"}, {"measurement": "Individual plate counts, revertants per plate", "setting": "[3]; [5]", "value": "14 revertants per plate and 29 revertants per plate and 24 revertants per plate"}, {"measurement": "Mean revertants per plate", "setting": "[3]; [6]", "value": 16, "unit": "revertants per plate"}, {"measurement": "Individual plate counts, revertants per plate", "setting": "[3]; [6]", "value": "9 revertants per plate and 19 revertants per plate (2×)"}, {"measurement": "Mean revertants per plate", "setting": "[3]; [7]", "value": 31, "unit": "revertants per plate"}, {"measurement": "Individual plate counts, revertants per plate", "setting": "[3]; [7]", "value": "21 revertants per plate and 35 revertants per plate and 37 revertants per plate"}, {"measurement": "Mean revertants per plate", "setting": "[3]; [8]", "value": 17, "unit": "revertants per plate"}, {"measurement": "Individual plate counts, revertants per plate", "setting": "[3]; [8]", "value": "16 revertants per plate and 12 revertants per plate and 22 revertants per plate"}, {"measurement": "Mean revertants per plate", "setting": "[3]; [9]", "value": 18, "unit": "revertants per plate"}, {"measurement": "Individual plate counts, revertants per plate", "setting": "[3]; [9]", "value": "18 revertants per plate and 23 revertants per plate and 12 revertants per plate"}, {"measurement": "Mean revertants per plate", "setting": "[3]; [10]", "value": 31, "unit": "revertants per plate"}, {"measurement": "Individual plate counts, revertants per plate", "setting": "[3]; [10]", "value": "35 revertants per plate and 26 revertants per plate and 33 revertants per plate"}, {"measurement": "Mean revertants per plate", "setting": "[3]; [11]", "value": 79, "unit": "revertants per plate"}, {"measurement": "Individual plate counts, revertants per plate", "setting": "[3]; [11]", "value": "78 revertants per plate (2×) and 82 revertants per plate"}, {"measurement": "Mean revertants per plate", "setting": "[3]; [12]", "value": 81, "unit": "revertants per plate"}, {"measurement": "Individual plate counts, revertants per plate", "setting": "[3]; [12]", "value": "80 revertants per plate and 70 revertants per plate and 93 revertants per plate"}, {"measurement": "Background lawn", "setting": "[3]; Table 1, TA98, rat liver S9, 3.33 μg/plate", "value": 1}, {"measurement": "Background lawn", "setting": "[3]; Table 1, TA98, rat liver S9, 10.0 μg/plate", "value": 1}, {"measurement": "Background lawn", "setting": "[3]; Table 1, TA98, rat liver S9, 33.3 μg/plate", "value": 1}, {"measurement": "Background lawn", "setting": "[3]; Table 1, TA98, rat liver S9, 100 μg/plate", "value": 1, "unit": "sp"}, {"measurement": "Background lawn", "setting": "[3]; Table 1, TA98, rat liver S9, 333 μg/plate", "value": 1, "unit": "mp"}, {"measurement": "Background lawn", "setting": "[3]; Table 1, TA98, rat liver S9, 1000 μg/plate", "value": 1, "unit": "mp"}, {"measurement": "Background lawn", "setting": "[3]; Table 1, TA98, rat liver S9, 3330 μg/plate", "value": 6, "unit": "mp"}, {"measurement": "Background lawn", "setting": "[3]; Table 1, TA98, rat liver S9, 4000 μg/plate", "value": 6, "unit": "mp"}, {"measurement": "Background lawn", "setting": "[3]; Table 2 summary, TA98, rat liver S9, 3.33 μg/plate", "value": 1}, {"measurement": "Background lawn", "setting": "[3]; Table 2 summary, TA98, rat liver S9, 10.0 μg/plate", "value": 1}, {"measurement": "Background lawn", "setting": "[3]; Table 2 summary, TA98, rat liver S9, 33.3 μg/plate", "value": 1}, {"measurement": "Background lawn", "setting": "[3]; Table 2 summary, TA98, rat liver S9, 100 μg/plate", "value": 1, "unit": "sp"}, {"measurement": "Background lawn", "setting": "[3]; Table 2 summary, TA98, rat liver S9, 333 μg/plate", "value": 1, "unit": "mp"}, {"measurement": "Background lawn", "setting": "[3]; Table 2 summary, TA98, rat liver S9, 1000 μg/plate", "value": 1, "unit": "mp"}, {"measurement": "Background lawn", "setting": "[3]; Table 2 summary, TA98, rat liver S9, 3330 μg/plate", "value": 6, "unit": "mp"}, {"measurement": "Background lawn", "setting": "[3]; Table 2 summary, TA98, rat liver S9, 4000 μg/plate", "value": 6, "unit": "mp"}, {"measurement": "Ames Test outcome (mutagenicity)", "setting": "[3]; [13]", "value": "mutagenic"}, {"measurement": "Increase in the number of revertants per plate", "setting": "[3]; [13]", "value": 3.9, "unit": "fold"}, {"measurement": "National Toxicology Program carcinogen listing", "setting": "[4]", "value": "reasonably anticipated to be a carcinogen"}]}]}
